Source: PMC6270614 (Molecules, 2013)
Read-outs that look alike come from different tables or passages of the source.

Key:
CB1 [1] = system: CB1; design: method as in PMID 21420860; conditions: Figure 1; read-out: IC50 cAMP (CB1); cited from earlier work
CB2 [2] = system: CB2; design: method as in PMID 21420860; conditions: Figure 1; read-out: IC50 cAMP (CB2); cited from earlier work
CB1 [3] = system: CB1; design: method as in PMID 21669533; conditions: Figure 1; cited from earlier work
CB2 [4] = system: CB2; design: method as in PMID 21669533; conditions: Figure 1; cited from earlier work
CB1 receptor = conditions: cited from earlier work
[5] = molecular target: human cannabinoid CB1 receptor (Homo sapiens, UniProt P21554); test: CB1 receptor radioligand ([3H]CP-55,940) displacement binding assay; conditions: for inhibition at 1 µM: read-out: displacement of [3H]CP-55,940 in the preliminary screen (printed in the CB1 Ki column)
Method: In all cases, Ki values were calculated by applying the Cheng-Prusoff equation [34] to the IC50 values (obtained by GraphPad, GraphPad Software, Inc., La Jolla, CA, USA) for the displacement of the bound radioligand by increasing concentrations of the test compounds (after three separate experiments for each compound).

CB2 [6] = molecular target: CB2; design: method as in PMID 21885167; conditions: Figure 1; cited from earlier work
[7] = CB1 (Ki, nM), displacement of 0.5 nM [3H]CP-55,940, means ± SEM, n = 3, Cheng-Prusoff from IC50
[8] = Experimental activity (pIC50, M), CoMFA training and test set input
[9] = CoMFA training and test set input, read-out: Experimental activity (pIC50) (converted)

Chain of human cannabinoid CB1 receptor (P21554 whole entry): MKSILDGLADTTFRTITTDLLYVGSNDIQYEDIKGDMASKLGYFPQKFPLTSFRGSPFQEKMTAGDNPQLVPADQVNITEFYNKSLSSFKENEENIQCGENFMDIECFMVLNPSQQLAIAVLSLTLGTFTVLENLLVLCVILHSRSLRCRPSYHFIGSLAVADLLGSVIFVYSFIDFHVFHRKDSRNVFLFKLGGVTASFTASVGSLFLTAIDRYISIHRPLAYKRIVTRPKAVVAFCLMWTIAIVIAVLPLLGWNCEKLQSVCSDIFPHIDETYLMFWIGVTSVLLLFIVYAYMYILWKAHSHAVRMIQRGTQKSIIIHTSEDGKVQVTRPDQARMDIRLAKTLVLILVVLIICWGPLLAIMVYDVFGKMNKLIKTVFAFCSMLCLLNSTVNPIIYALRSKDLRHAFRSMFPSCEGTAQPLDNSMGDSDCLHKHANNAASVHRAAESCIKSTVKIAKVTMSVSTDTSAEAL

Structure (SMILES): O=C(c1cccc(Cl)c1Cl)c1nc(CN2CCC(F)(F)CC2)c2ccccn12 [Merck]
- IC50 (CB1 [1]): 90 nM
- IC50 (CB2 [2]): 0.3 nM

Structure (SMILES): CCS(=O)(=O)c1ccc2c(c1)nc(C(C)(C)C)n2C[C@@H]1CCCO1 [Pfizer]
- EC50 (CB1 [3]): > 10000 nM
- EC50 (CB2 [4]): 11.7 nM

Structure (SMILES): CCCCCn1c(C)c(C(=O)c2ccccc2I)c2ccccc21 [AM679]
- Ki (CB1 receptor; non-selective CB1 and CB2 agonist): 13.5 nM

Structure (SMILES): O=C(c1cccc2ccccc12)n1c(-c2ccncc2)nc2ccc(F)cc21 [Compound 20, (6-Fluoro-2-(pyridin-4-yl)-1H-benzo[d]imidazol-1-yl)(naphthalen-1-yl)methanone]
- inhibition at 1 µM [5]: < 50%
- melting point: 190.4 to 190.9 °C

Structure (SMILES): O=C(c1ccc2ccccc2c1)n1c(-c2ccncc2)nc2cc(F)ccc21 [Compound 30, (5-Fluoro-2-(pyridin-4-yl)-1H-benzo[d]imidazol-1-yl)(naphthalen-2-yl)methanone]
- Ki [5, 7]: 1030 ± 57.9 nM
- IC50 [5, 8]: 1880 nM
- melting point: 195.7 to 200.6 °C

Structure (SMILES): Cc1cc2nc(-c3cccnc3)n(Cc3cccc4ccccc34)c2cc1C [Compound 40, 5,6-Dimethyl-1-(naphthalen-1-ylmethyl)-2-(pyridin-3-yl)-1H-benzo[d]imidazole]
- inhibition at 1 µM [5]: < 50%
- melting point: 141.4 to 142.1 °C

Structure (SMILES): CCCCCn1c(C)c(C(=O)c2cccc3ccccc23)c2cccnc21 [Abbott]
- pKi (CB1) (CB1 receptor; Figure 1): 7.9
- pKi (CB2) (CB2 [6]): 7.3

Structure (SMILES): Fc1ccc2nc(-c3cccnc3)n(Cc3cccc4ccccc34)c2c1 [Compound 39, 6-Fluoro-1-(naphthalen-1-ylmethyl)-2-(pyridin-3-yl)-1H-benzo[d]imidazole]
- Ki [5, 7]: < 200 nM
- IC50 [5, 8]: 0.979 nM
- IC50 ([5]; IC50 (CB1 displacement), displacement of [3H]CP-55,940): < 10 nM
- Ki ([5]; read-out: CB1 (Ki), displacement of 0.5 nM [3H]CP-55,940, means ± SEM, n = 3, Cheng-Prusoff from IC50): 0.53 ± 0.9 nM
- melting point: 156.1 to 157 °C

Structure (SMILES): O=C(c1ccc2ccccc2c1)n1c(-c2cccnc2)nc2ccccc21 [Compound 25, Naphthalen-2-yl(2-(pyridin-3-yl)-1H-benzo[d]imidazol-1-yl)methanone]
- inhibition at 1 µM [5]: < 50%
- melting point: 148 to 148.6 °C

Structure (SMILES): Fc1ccc2c(c1)nc(-c1ccncc1)n2Cc1cccc2ccccc12 [Compound 42, 5-Fluoro-1-(naphthalen-1-ylmethyl)-2-(pyridin-4-yl)-1H-benzo[d]imidazole]
- inhibition at 1 µM [5]: < 50%
- melting point: 151.5 to 152.5 °C

Structure (SMILES): O=C(c1cccc2ccccc12)n1c(-c2ccccn2)nc2ccc(F)cc21 [Compound 12, (6-Fluoro-2-(pyridin-2-yl)-1H-benzo[d]imidazol-1-yl)(naphthalen-1-yl)methanone]
- inhibition at 1 µM [5]: < 50%
- melting point: 177.2 to 178 °C

Structure (SMILES): c1cncc(-c2nc3ccccc3n2Cc2cccc3ccccc23)c1 [Compound 37, 1-(Naphthalen-1-ylmethyl)-2-(pyridin-3-yl)-1H-benzo[d]imidazole]
- Ki [5, 7]: 75.9 ± 16.6 nM
- IC50 [5, 8]: 139 nM
- melting point: 160.2 to 161.1 °C

Structure (SMILES): Fc1ccc2c(c1)nc(-c1cccnc1)n2Cc1ccc2ccccc2c1 [Compound 50, 5-Fluoro-1-(naphthalen-2-ylmethyl)-2-(pyridin-3-yl)-1H-benzo[d]imidazole]
- IC50 [5, 9]: 600 nM
- Ki ([5]; read-out: CB1 (Ki)): 327 ± 60 nM
- melting point: 175.7 to 176.8 °C

Structure (SMILES): Fc1ccc2c(c1)nc(-c1ccccn1)n2Cc1ccc2ccccc2c1 [Compound 46, 5-Fluoro-1-(naphthalen-2-ylmethyl)-2-(pyridin-2-yl)-1H-benzo[d]imidazole]
- inhibition at 1 µM [5]: < 50%
- melting point: 165.7 to 166.4 °C

Structure (SMILES): c1ccc2c(Cn3c(-c4ccncc4)nc4ccccc43)cccc2c1 [Compound 41, 1-(Naphthalen-1-ylmethyl)-2-(pyridin-4-yl)-1H-benzo[d]imidazole]
- IC50 [5, 9]: 274 nM
- Ki ([5]; read-out: CB1 (Ki)): 149 ± 1.9 nM
- melting point: 163.3 to 163.8 °C

Structure (SMILES): c1ccc(-c2nc3ccccc3n2Cc2ccc3ccccc3c2)nc1 [Compound 45, 1-(Naphthalen-2-ylmethyl)-2-(pyridin-2-yl)-1H-benzo[d]imidazole]
- Ki [5, 7]: 31.8 ± 12 nM
- IC50 [5, 8]: 58.3 nM
- melting point: 150.7 to 151.8 °C

Structure (SMILES): Cc1cc2nc(-c3cccnc3)n(C(=O)c3cccc4ccccc34)c2cc1C [Compound 17, (5,6-Dimethyl-2-(pyridin-3-yl)-1H-benzo[d]imidazol-1-yl)(naphthalen-1-yl)methanone]
- inhibition at 1 µM [5]: < 50%
- melting point: 177.2 to 178 °C
